# Legend:
# Type in all cases: in vivo, C57BL/6 mice
# [1] = system: inguinal lymph nodes (LN); test: Whole organ transcriptome (GeneChip microarray) of draining inguinal lymph nodes 6 h after adjuvant administration: sDEGs, gene modules, hierarchical clustering; for adjuvant group (cluster) in LN: key: G1 (interferon signaling); G2 (metabolism of lipids and lipoproteins); G3 (response to stress); G4 (response to wounding); G5 (phosphate-containing compound metabolic process); G6 (phagosome)
# LV, SP and LNs = test: Whole organ transcriptome across organs (adjuvant gene space): gene responses and adjuvant grouping; conditions: hierarchical clustering; LV, SP and/or LNs
# [2] = system: preferentially upregulated genes in LV, SP, LN; test: Z-score-based differential gene expression analysis (adjuvant group- or adjuvant-associated genes, 40 module mapping, TargetMine annotation); set-up: key to z sum, 1458589_at ---: sum of the per-gene fold-change z-scores of the triplicate samples; conditions: ID
# Procedure, shortened: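 Per-sample fold-change values converted to gene-wise z-scores within each organ's data set, then triplicate z-scores summed per adjuvant. Genes with summed score >3 taken as preferentially expressed; gene groups defined by combined per-adjuvant z-score thresholds (z>1 to z>3) specific to each organ.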
smiles,measurement,setting,value
"Nc1nc2c(ncn2[C@@H]2O[C@@H]3COP(=O)(O)O[C@H]4[C@@H](O)[C@H](n5cnc6c(N)ncnc65)O[C@@H]4COP(=O)(O)O[C@@H]2[C@@H]3O)c(=O)[nH]1 [cGAMP, Cyclic [G(2′,5′)pA(3′,5′)p]]","module M40^LN (immune system process; dendritic cells, macrophages, neutrophils, stromal cells)","[1]; LN, 6 h",strongly induced
same,adjuvant group (cluster) in LN,"[1]; hierarchical clustering, lymph node",G1
same,"Number of gene probes with statistically significant changes (sDEGs), LN, Down","[1]; i.d. administration, lymph node, fold change <0.667, p<0.01, customized PA call=1, 6 h after adjuvant",255
same,"Number of gene probes with statistically significant changes (sDEGs), LN, Up","[1]; i.d. administration, lymph node, fold change >1.5, p<0.01, customized PA call=1, 6 h after adjuvant",1135
same,adjuvant group (cluster) within the adjuvant gene space,"LV, SP and LNs",group (G) 1
same,"z sum, 1428027_at LOC100653389","[2]; LN, Modules 26",−1.72
same,"z sum, 1419721_at Niacr1","[2]; LN, Modules 27",−2.05
same,"z sum, 1418424_at Tnfaip6","[2]; LN, Modules 29",−2.05
same,"z sum, 1419534_at Olr1","[2]; LN, Modules 29",−2.35
same,"z sum, 1421457_a_at Samsn1","[2]; LN, Modules 29",−1.88
same,"z sum, 1422305_at Ifnb1","[2]; LN, Modules 29",−1.97
same,"z sum, 1423028_at Ifna2","[2]; LN, Modules 29",−1.92
same,"z sum, 1425837_a_at Ccrn4l","[2]; LN, Modules 29",−2.11
same,"z sum, 1436387_at C330006P03Rik///Homer1","[2]; LN, Modules 29",−1.73
same,"z sum, 1439349_at Sbno2","[2]; LN, Modules 29",−2.1
same,"z sum, 1444010_at Eif4e","[2]; LN, Modules 29",−1.99
same,"z sum, 1448325_at Ppp1r15a","[2]; LN, Modules 29",−2.32
same,"z sum, 1449311_at Bach1","[2]; LN, Modules 29",−1.95
same,"z sum, 1450297_at Il6","[2]; LN, Modules 29",−2.07
same,"z sum, 1455197_at Rnd1","[2]; LN, Modules 29",−2.12
same,"z sum, 1455899_x_at Socs3","[2]; LN, Modules 29",−2.14
same,"z sum, 1417252_at Ptgs2","[2]; LN, Modules 34",−2.41
same,"z sum, 1417263_at Ptgs2","[2]; LN, Modules 34",−2.18
same,"z sum, 1419132_at Tfr2","[2]; LN, Modules 34",−1.86
same,"z sum, 1421473_at Il1a","[2]; LN, Modules 34",−2.25
same,"z sum, 1439981_at Tespa1","[2]; LN, Modules 35",−2.15
same,"z sum, 1441843_s_at 5230400M03Rik","[2]; LN, Modules 35",−1.71
same,"z sum, 1442556_at ---","[2]; LN, Modules 35",−1.95
same,"z sum, 1443414_at C78513","[2]; LN, Modules 35",−1.91
same,"z sum, 1444598_at ---","[2]; LN, Modules 35",−1.93
same,"z sum, 1445534_at ---","[2]; LN, Modules 35",−1.93
same,"z sum, 1446245_at ---","[2]; LN, Modules 35",−1.58
same,"z sum, 1457944_at ---","[2]; LN, Modules 35",−1.78
same,"z sum, 1458376_at B930025B16Rik","[2]; LN, Modules 35",−1.85
same,"z sum, 1459144_at ---","[2]; LN, Modules 35",−1.91
same,"z sum, 1425687_at Cflar","[2]; LN, Modules 36",−2.21
same,"z sum, 1427736_a_at Ccrl2","[2]; LN, Modules 36",−1.74
same,"z sum, 1449169_at Has2","[2]; LN, Modules 36",−1.67
same,"z sum, 1453636_at Pcgf5","[2]; LN, Modules 36",−1.86
same,"z sum, 1457888_at ---","[2]; LN, Modules 36",−1.91
same,"z sum, 1419508_at Ripk1","[2]; LN, Modules 37",−1.9
same,"z sum, 1421578_at Ccl4","[2]; LN, Modules 37",−2.14
same,"z sum, 1421679_a_at Cdkn1a","[2]; LN, Modules 37",−1.99
same,"z sum, 1424638_at Cdkn1a","[2]; LN, Modules 37",−2.22
same,"z sum, 1433508_at Klf6","[2]; LN, Modules 37",−2.41
same,"z sum, 1434350_at Csrnp1","[2]; LN, Modules 37",−1.97
same,"z sum, 1439680_at Tnfsf10","[2]; LN, Modules 37",−1.65
same,"z sum, 1448724_at Cish","[2]; LN, Modules 37",−2.38
same,"z sum, 1451340_at Arid5a","[2]; LN, Modules 37",−1.67
same,"z sum, 1453851_a_at Gadd45g","[2]; LN, Modules 37",−1.96
same,"z sum, 1457404_at Nfkbiz","[2]; LN, Modules 37",−1.92
same,"z sum, 1458589_at ---","[2]; LN, Modules 37",−2.36
same,"z sum, 1422054_a_at 5kil","[2]; LN, Modules 40",−2.23
same,"z sum, 1428735_at Cd69","[2]; LN, Modules 40",−1.52
same,"Adar 1425405_a_at (Group G1, Modules 20)","[2]; LV, sample x1",2.95
same,"Adar 1434268_at (Group G1, Modules 20)","[2]; LV, sample x1",2.22
same,"Ddx58 1436562_at (Group G1, Modules 20)","[2]; LV, sample x1",2.04
same,"Ddx58 1456890_at (Group G1, Modules 20)","[2]; LV, sample x1",2.26
same,"Eif2ak2 1422005_at (Group G1, Modules 20)","[2]; LV, sample x1",3.11
same,"G3bp2 1421323_a_at (Group G1, Modules 20)","[2]; LV, sample x1",3.19
same,"Gm9706///Isg15 1431591_s_at (Group G1, Modules 20)","[2]; LV, sample x1",2.13
same,"H2-T10///H2-T22///H2-T9 1449875_s_at (Group G1, Modules 20)","[2]; LV, sample x1",2.29
same,"Ifih1 1426276_at (Group G1, Modules 20)","[2]; LV, sample x1",1.73
same,"Ifit1 1450783_at (Group G1, Modules 20)","[2]; LV, sample x1",2.75
same,"Ifit3 1449025_at (Group G1, Modules 20)","[2]; LV, sample x1",2.13
same,"Irf7 1417244_a_at (Group G1, Modules 20)","[2]; LV, sample x1",1.6
same,"Irgm1 1418825_at (Group G1, Modules 20)","[2]; LV, sample x1",2.25
same,"Mndal 1426906_at (Group G1, Modules 20)","[2]; LV, sample x1",2.08
same,"Pml 1448757_at (Group G1, Modules 20)","[2]; LV, sample x1",2.13
